Source: PubChem BioAssay AID1963871 (Molecular Pharmacology Branch, DTP, NCI, 2024)

System: KRAS-mutant PDC multicell tumor spheroid viability
Assay: Anticancer human tumor 521955-158-R2-J5-PDC patient-derived pancreatic carcinoma cell line growth inhibition [KRAS2]
Details: for IC50: curve of first compound; for viability, T/C: stronger effect = lower value; active = viability on the fitted dose curve at most 10% of control; inactive = the rest
Description: Multicellular complex tumor spheroid response to RAS pathway inhibitors in combination with a targeted agents in patient-derived cell lines with oncogenic KRAS variants from multiple cancer types
A high-throughput screen of multi-cell type tumor spheroids was designed to identify active combinations of targeted small molecules and KRAS pathway inhibitors. Complex spheroids include a stromal component modeled by human endothelial cells (HUVEC) and fibroblasts modeled by human mesenchymal stem cells (MSCs). The concentration ranges selected for each drug and investigational agent were based upon clinically achievable concentrations if the clinical Cmax of the agent was known.
Compounds. The drugs and investigational agents: BI-3406 (NSC825286), BAY-293 (NSC824723), batoprotafib (TNO155; NSC825523), sotorasib (AMG 510; NSC818433), MRTX1257 (NSC819558), elimusertib (BAY 1895344; NSC800525), molibresib (GSK525762; NSC774829), temuterkib (LY3214996; NSC803410), venetoclax (NSC766270), alisertib (NSC759677), olaparib (NSC753686), talazoparib (NSC767125), erdafitinib (NSC781556), ipatasertib (NSC767898), cabozantinib (NSC761068), nintedanib (NSC756659), abemaciclib (NSC768073), docetaxel (NSC628503), trametinib (NSC758246), and sapanisertib (NSC764658) were obtained from the National Cancer Institute (NCI) Developmental Therapeutics Program Chemical Repository. The FDA-approved anticancer drug set is available from the Developmental Therapeutics Program. […] The stock solutions were prepared in dimethyl sulfoxide (DMSO, Sigma-Aldrich, St. Louis, MO, cat. D2650) at 800-fold the tested concentration and stored at -70 degrees C prior to their use. All drugs and investigational agents were tested over a range starting from a high concentration at or near the clinical Cmax and decreasing in half-log increments. If the clinical Cmax for an agent had not been determined, the highest concentration tested was 10 microM.
Cell Culture. All cells were maintained in an incubator at 37 degrees C and 5% CO2 with 95% humidity. The PDC lines were cultured according to standard operating procedures established by the NCI PDMR (https://pdmr.cancer.gov/sops/default.htm). Briefly, all PDCs were thawed and cultured in Matrigel-coated flasks prepared with a working solution of 1X Ham's F-12 nutrient mix, without supplementation (Invitrogen, Waltham, MA, cat. 11765054), 100 U/mL penicillin-streptomycin (Invitrogen, cat. 15140122), and 2.5% Matrigel (Corning Inc., Corning, NY, cat. 354248) for the first three passages. All PDCs were cultured in complete DMEM/F-12 media containing advanced DMEM/F-12 (Invitrogen, cat. 12634028), 4.9% defined fetal bovine serum, heat inactivated (HyClone Laboratories Inc., Logan, UT, cat. SH30070.03HI), 389 ng/mL hydrocortisone (Sigma-Aldrich, cat. H4001), 9.7 ng/mL human EGF recombinant protein (Invitrogen, cat. PHG0313), 23.4 microg/mL adenine (Sigma-Aldrich, cat. A2786), 97.3 U/mL penicillin-streptomycin (Invitrogen, cat. 15140122), 1.9 mM L-glutamine (Invitrogen, cat. 25030081), and 9.7 microM Y-27632 dihydrochloride (Tocris Bioscience, Bristol, United Kingdom, cat. 1254). The PDCs were cultured in complete DMEM/F12 media without 9.7 microM Y-27632 dihydrochloride for at least two passages prior to the screen. The established cell line HOP-62 was cultured in RPMI 1640 medium, HEPES (Invitrogen, cat. 22400105) with 10% defined fetal bovine serum (HyClone Laboratories Inc., cat. SH30070.03) and 2 mM L-glutamine (Invitrogen, cat. 25030081). The pooled donor HUVEC were cultured in endothelial cell growth medium 2 (PromoCell, Heidelberg, Germany, cat. C-22011) and the hMSC were cultured in mesenchymal stem cell growth medium 2 (PromoCell, cat. C-28009). For all experiments, HUVEC and hMSC were used at passages </=5, while the malignant cell lines were used at passages </=15. […]
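Note: viability read after seven days of drug exposure.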

CN(C)C/C=C/C(=O)Nc1cc2c(Nc3ccc(F)c(Cl)c3)ncnc2cc1O[C@H]1CCOC1 + C=CC(=O)N1CCN(c2nc(=O)n(-c3c(C)ccnc3C(C)C)c3nc(-c4c(O)cccc4F)c(F)cc23)C(C)C1
75.8 nM: IC50 (second compound 10 µM)
> 100 nM: IC50 (second compound 0.1 µM) | IC50 (second compound 0.316 µM) | IC50 (second compound 1 µM) | IC50 (second compound 3.16 µM)
inactive: viability, T/C (second compound 0.1 µM, first compound 0.000316 µM) 124% | viability, T/C (second compound 0.1 µM, first compound 0.001 µM) 118% | viability, T/C (second compound 0.1 µM, first compound 0.00316 µM) 93.8% | viability, T/C (second compound 0.1 µM, first compound 0.01 µM) 97.2% | viability, T/C (second compound 0.1 µM, first compound 0.0316 µM) 98.6% | viability, T/C (second compound 0.1 µM, first compound 0.1 µM) 80.5% | viability, T/C (second compound 0.316 µM, first compound 0.000316 µM) 133% | viability, T/C (second compound 0.316 µM, first compound 0.001 µM) 134% | viability, T/C (second compound 0.316 µM, first compound 0.00316 µM) 103% | viability, T/C (second compound 0.316 µM, first compound 0.01 µM) 88.5% | viability, T/C (second compound 0.316 µM, first compound 0.0316 µM) 90.6% | viability, T/C (second compound 0.316 µM, first compound 0.1 µM) 76.7% | viability, T/C (second compound 1 µM, first compound 0.000316 µM) 120% | viability, T/C (second compound 1 µM, first compound 0.001 µM) 120% | viability, T/C (second compound 1 µM, first compound 0.00316 µM) 99.8% | viability, T/C (second compound 1 µM, first compound 0.01 µM) 84.9% | viability, T/C (second compound 1 µM, first compound 0.0316 µM) 85.2% | viability, T/C (second compound 1 µM, first compound 0.1 µM) 71% | viability, T/C (second compound 3.16 µM, first compound 0.000316 µM) 99.4% | viability, T/C (second compound 3.16 µM, first compound 0.001 µM) 104% | viability, T/C (second compound 3.16 µM, first compound 0.00316 µM) 89.5% | viability, T/C (second compound 3.16 µM, first compound 0.01 µM) 77% | viability, T/C (second compound 3.16 µM, first compound 0.0316 µM) 59.4% | viability, T/C (second compound 3.16 µM, first compound 0.1 µM) 69.2% | viability, T/C (second compound 10 µM, first compound 0.000316 µM) 67.4% | viability, T/C (second compound 10 µM, first compound 0.001 µM) 72.4% | viability, T/C (second compound 10 µM, first compound 0.00316 µM) 55.7% | viability, T/C (second compound 10 µM, first compound 0.01 µM) 57.5% | viability, T/C (second compound 10 µM, first compound 0.0316 µM) 51.9% | viability, T/C (second compound 10 µM, first compound 0.1 µM) 49.7%
